The target in this test is Vascular endothelial growth factor receptor 2 (Homo sapiens, UniProt P35968). Kind of test: Inhibition of KDR (unknown origin).

Each structure is given as a SMILES string.

Sequence of Vascular endothelial growth factor receptor 2 (P35968 whole entry): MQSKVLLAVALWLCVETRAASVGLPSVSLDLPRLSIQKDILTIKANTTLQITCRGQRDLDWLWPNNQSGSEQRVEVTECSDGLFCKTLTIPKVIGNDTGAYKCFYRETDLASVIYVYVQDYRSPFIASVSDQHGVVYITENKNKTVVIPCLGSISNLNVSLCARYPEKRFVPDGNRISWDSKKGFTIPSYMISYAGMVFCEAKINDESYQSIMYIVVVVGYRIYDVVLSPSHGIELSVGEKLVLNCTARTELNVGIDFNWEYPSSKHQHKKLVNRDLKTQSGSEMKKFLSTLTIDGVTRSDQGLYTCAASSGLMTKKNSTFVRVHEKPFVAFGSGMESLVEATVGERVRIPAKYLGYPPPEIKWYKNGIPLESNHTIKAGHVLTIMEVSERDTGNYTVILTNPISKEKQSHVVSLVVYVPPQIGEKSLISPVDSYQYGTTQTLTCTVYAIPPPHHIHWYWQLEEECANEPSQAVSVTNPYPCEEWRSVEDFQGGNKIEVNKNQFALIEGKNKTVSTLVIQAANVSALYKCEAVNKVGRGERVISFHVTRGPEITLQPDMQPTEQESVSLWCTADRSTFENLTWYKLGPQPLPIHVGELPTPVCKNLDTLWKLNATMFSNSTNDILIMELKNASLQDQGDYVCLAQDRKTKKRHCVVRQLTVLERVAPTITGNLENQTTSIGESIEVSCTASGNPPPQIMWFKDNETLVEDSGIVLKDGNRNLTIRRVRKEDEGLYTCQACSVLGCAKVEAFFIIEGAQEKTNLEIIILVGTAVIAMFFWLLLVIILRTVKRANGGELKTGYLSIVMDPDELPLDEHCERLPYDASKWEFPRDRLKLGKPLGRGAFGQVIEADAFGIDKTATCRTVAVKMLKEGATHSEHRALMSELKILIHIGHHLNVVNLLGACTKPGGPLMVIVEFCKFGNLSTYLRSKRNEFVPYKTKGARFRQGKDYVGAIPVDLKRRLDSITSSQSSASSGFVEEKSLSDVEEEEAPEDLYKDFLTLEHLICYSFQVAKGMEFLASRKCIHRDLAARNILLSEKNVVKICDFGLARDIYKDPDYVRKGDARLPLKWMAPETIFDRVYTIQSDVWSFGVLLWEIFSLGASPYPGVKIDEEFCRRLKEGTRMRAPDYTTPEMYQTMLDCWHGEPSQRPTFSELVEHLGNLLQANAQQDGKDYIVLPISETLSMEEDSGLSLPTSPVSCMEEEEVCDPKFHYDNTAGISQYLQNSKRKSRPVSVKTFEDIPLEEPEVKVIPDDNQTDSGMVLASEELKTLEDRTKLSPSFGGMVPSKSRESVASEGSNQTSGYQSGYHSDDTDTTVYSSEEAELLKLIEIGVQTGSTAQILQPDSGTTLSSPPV

In the case of `CC(C)(C)c1cc(NC(=O)Nc2ccc(-c3cc(N)no3)cc2)no1`, the IC50 (usually the midpoint of a concentration-inhibition curve) was above 10 µM. Compound `Nc1cc(-c2ccc(NC(=O)Nc3cccc(C(F)(F)F)c3)cc2)on1` registered an IC50 above 10 µM.

For the origin of these results see ChEMBL document CHEMBL3808391, “Evolution of a New Class of VEGFR-2 Inhibitors from Scaffold Morphing and Redesign” (ACS Med Chem Lett, 2016).
